# Source: PMC3894963, “Expression and Functional Characterization of Membrane-Integrated Mammalian Corticotropin Releasing Factor Receptors 1 and 2 in Escherichia coli” (PLoS ONE, 2014)
# Entries after “also recorded” stand apart in the source; their conditions may differ. Ends that are not written are not given here.
# Tests used:
# CRFR1 / CRFR2 = details: introduction; cited from earlier work
# Source text: In most vertebrates there are two highly conserved tissue-specifically expressed CRFRs, designated type 1 [15] and type 2 [16], encoded by different genes and approximately 70% identical to each other at the amino acid level. CRFR1 is relatively more abundant in the nervous system, including the pituitary, while CRFR2 is particularly expressed in the heart, skeletal muscle, and gastrointestinal tract. […] The main type 1 isoform in human, ra ...
# mCRFR2β [1] = target: T1, mCRFR2β (Mus musculus, UniProt Q60748); assay: Competitive displacement of labeled astressin, mCRFR2β in E. coli membranes; assay type: binding; details: for Displacement of bound labeled astressin: mCRFR2β, E. coli membranes (Figure 11B)
# T1 construct: mCRFR2β(Val25-C-term) - PhoA; made in house; host or cells: E. coli (membrane fraction)
# Procedure: (§1) The incubation was performed at room temp for 90-120 min, at which time the plates were aspirated and each well was washed with 2×100 μl assay buffer, dried and counted in a γ-counter. Each assay included at least triplicate wells for each concentration, and the assays were repeated at least twice (except where indicated). […] The saturation and competitive binding experiments are analyzed by non-linear regression with the GraphPad Prism program (www.graphpad.com) assuming binding to a single site. Specifically, for saturation binding experiments, binding is determined as a function of increasing concentrations of radioligand. The equation used is y = {(Bmax)^.[radioligand]}/{Kd+[radioligand]}, where y = the specific binding (i.e., total binding-non-specific binding). Competitive binding experiments use a constant concentration of radioligand together with increasing concentrations of competitor. […] Because [radioligand] is <Kd, the Ki = EC50. For multiple determinations, Log (EC50) values were averaged to calculate the values in Table 1. […] In Table 1, the inhibition constant (Ki) values are shown together with the standard error and ranges, calculated assuming log normal distribution.
# hCRFR1α [2] = target: T2, hCRFR1α (Homo sapiens, UniProt P34998); assay: Saturation binding of labeled PD-sauvagine, hCRFR1α in E. coli membranes
# T2 construct: The cDNAs encoding full-length mature forms of hCRFR1α and mCRFR2β were introduced into pET-26b plasmid; made in house; host or cells: E. coli (membrane fraction)
# T2 sequence (P34998 24-415): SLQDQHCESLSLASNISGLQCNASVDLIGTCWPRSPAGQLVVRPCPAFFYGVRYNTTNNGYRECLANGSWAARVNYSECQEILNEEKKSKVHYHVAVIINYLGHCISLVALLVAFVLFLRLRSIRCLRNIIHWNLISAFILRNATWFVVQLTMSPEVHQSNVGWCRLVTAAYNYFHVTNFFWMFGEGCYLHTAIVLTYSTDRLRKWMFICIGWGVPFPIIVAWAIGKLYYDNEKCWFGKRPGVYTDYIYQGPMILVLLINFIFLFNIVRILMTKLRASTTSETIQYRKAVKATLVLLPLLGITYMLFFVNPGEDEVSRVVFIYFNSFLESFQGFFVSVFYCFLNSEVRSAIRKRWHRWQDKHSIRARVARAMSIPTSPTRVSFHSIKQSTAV
# Procedure: as §1
# mCRFR2β [3] = target: T1, mCRFR2β; assay: Saturation binding of labeled PD-sauvagine, mCRFR2β in E. coli membranes
# Procedure: as §1
# CRFR1 = system: CRFR1; design: method as in PMID 9415408; details: CRFR1 in mammalian cells; cited from earlier work
# hCRFR1α [4] = target: T2, hCRFR1α; assay: Competitive displacement of labeled PD-sauvagine, hCRFR1α in E. coli membranes; assay type: binding; details: E. coli membranes (Figure 14)
# Procedure: Each assay included at least triplicate wells for each concentration, and the assays were repeated at least twice (except where indicated).
# The saturation and competitive binding experiments are analyzed by non-linear regression with the GraphPad Prism program (www.graphpad.com) assuming binding to a single site. Specifically, for saturation binding experiments, binding is determined as a function of increasing concentrations of radioligand. The equation used is y = {(Bmax)^.[radioligand]}/{Kd+[radioligand]}, where y = the specific binding (i.e., total binding-non-specific binding). Competitive binding experiments use a constant concentration of radioligand together with increasing concentrations of competitor. […] Because [radioligand] is <Kd, the Ki = EC50. For multiple determinations, Log (EC50) values were averaged to calculate the values in Table 1. […] In Table 1, the inhibition constant (Ki) values are shown together with the standard error and ranges, calculated assuming log normal distribution.
# mCRFR2β [5] = target: T1, mCRFR2β; assay: Binding of labeled Ucn1, mCRFR2β in E. coli; details: data not shown
# hCRFR1α [6] = target: T2, hCRFR1α; assay: Binding of labeled Ucn1, hCRFR1α in E. coli; details: data not shown
# hCRFR1α [7] = target: T2, hCRFR1α; assay: Binding of labeled sauvagine, hCRFR1α in E. coli; details: hCRFR1α expressed in E. coli, [^125I-Tyr^0,Glu^1,Nle^17]-sauvagine
# Procedure: (§2) The incubation was performed at room temp for 90–120 min, at which time the plates were aspirated and each well was washed with 2×100 µl assay buffer, dried and counted in a γ-counter. Each assay included at least triplicate wells for each concentration, and the assays were repeated at least twice (except where indicated).
# mCRFR2β [8] = target: T1, mCRFR2β; assay: Binding of labeled sauvagine, mCRFR2β in E. coli; details: mCRFR2β expressed in E. coli, [^125I-Tyr^0,Glu^1,Nle^17]-sauvagine
# Procedure: as §2
# hCRFR1α [9] = target: T2, hCRFR1α; assay: Competitive displacement of labeled astressin, hCRFR1α in E. coli membranes; assay type: binding; details: E. coli membranes (Figure 11A)
# Procedure: as §1
# ECD-1s of the CRFRs = details: cited from earlier work
# Source text: Further, the CRFRs' coupling to G-proteins in mammalian cells is important for the high affinity binding of agonists, such as sauvagine and CRF, ...
# [10] = labeled PD-sauvagine versus labeled astressin, printed with ref [55]
# [11] = nanomolar concentrations, Kd not determined (Figure S3)
# [12] = listed as labeled agonist sauvagine
# T1 sequence (Q60748 25-431 isoform Q60748-2): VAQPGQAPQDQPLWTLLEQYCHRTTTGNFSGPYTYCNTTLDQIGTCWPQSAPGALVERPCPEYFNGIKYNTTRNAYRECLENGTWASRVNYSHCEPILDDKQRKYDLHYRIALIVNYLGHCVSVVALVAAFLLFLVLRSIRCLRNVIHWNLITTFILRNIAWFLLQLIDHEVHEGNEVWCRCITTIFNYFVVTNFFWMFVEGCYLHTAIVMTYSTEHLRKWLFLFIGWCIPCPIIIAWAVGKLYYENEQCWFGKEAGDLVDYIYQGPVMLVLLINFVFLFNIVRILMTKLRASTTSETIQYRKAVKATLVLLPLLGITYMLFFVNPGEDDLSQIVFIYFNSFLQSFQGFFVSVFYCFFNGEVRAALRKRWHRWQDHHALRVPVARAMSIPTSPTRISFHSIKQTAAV
molecule,measurement,setting,value
"mUcn3: CRFR2-selective ligand, mouse (FTLSLDVPTNIMNILFNIDKAKNLRAKAAANAQLMAQI; ends and bridges not checked; UniProt Q924A4 123-160, looked up)",Relative affinity for CRFR1 and CRFR2,CRFR1 / CRFR2,selective for CRFR2
same,Displacement of bound labeled astressin,mCRFR2β [1],does not compete for binding to mCRFR2β
r/hCRF: CRF is a 41-amino acid (aa) peptide synthesized in the hypothalamus,Relative affinity for CRFR1 and CRFR2,CRFR1 / CRFR2,tenfold higher affinity for CRFR1 than for CRFR2
"[^125I-Tyr^0,Glu^1]PD-sauvagine [labeled PD-sauvagine]",Binding of labeled PD-sauvagine,hCRFR1α [2],"do bind the other labeled agonist, PD-sauvagine"
same,Number of sites detected,hCRFR1α [2]; [10],less than that detected by labeled astressin
same,Saturation of binding,hCRFR1α [2]; [11],at nanomolar concentrations the binding did not saturate
same,Binding of labeled PD-sauvagine,mCRFR2β [3],"do bind the other labeled agonist, PD-sauvagine"
same,Number of sites detected,mCRFR2β [3]; [10],less than that detected by labeled astressin
same,Saturation of binding,mCRFR2β [3]; [11],at nanomolar concentrations the binding did not saturate
CCCCN(CC)c1nc(C)nc2c1c(C)c(C)n2-c1c(C)cc(C)cc1C [antalarmin],Binding site,CRFR1,binds to a site defined by residues in transmembrane domains 3 and 5 of CRFR1
same,Displacement of bound labeled PD-sauvagine,hCRFR1α [4],displaces labeled PD-sauvagine bound to hCRFR1α (Figure 14) in a dose dependent manner; also recorded: competitively displaces labeled PD-sauvagine bound to a small percentage of the hCRFR1α expressed in E. coli membranes
"labeled Ucn1: labeled Ucn1, binding data not shown (DNPSLSIDLTFHLLRTLLELARTQSQRERAEQNRIIFDSV; ends and bridges not checked; also: labeled (label not given here); UniProt P55089 83-122, looked up)",Binding of labeled Ucn1,mCRFR2β [5],observed binding of labeled Ucn1 to the receptors
same,Binding of labeled Ucn1,hCRFR1α [6],observed binding of labeled Ucn1 to the receptors
CC[C@H](C)[C@H](NC(=O)[C@H](CO)NC(=O)[C@H](CC(C)C)NC(=O)[C@@H]1CCCN1C(=O)[C@@H]1CCCN1C(=O)[C@H](CC(=O)O)NC(=O)[C@@H](N)CC(=O)O)C(=O)N[C@@H](CC(=O)O)C(=O)N[C@@H](CC(C)C)C(=O)N[C@H](C(=O)N[C@@H](Cc1ccccc1)C(=O)N[C@@H](Cc1c[nH]cn1)C(=O)N[C@@H](CC(C)C)C(=O)N[C@@H](CC(C)C)C(=O)N[C@@H](CCCNC(=N)N)C(=O)N[C@H](C(=O)N[C@@H](CC(C)C)C(=O)N[C@@H](CC(C)C)C(=O)N[C@@H](CCC(=O)O)C(=O)N[C@@H](CC(C)C)C(=O)N[C@@H](C)C(=O)N[C@@H](CCCNC(=N)N)C(=O)N[C@H](C(=O)N[C@@H](CCC(N)=O)C(=O)N[C@@H](CO)C(=O)N[C@@H](CCC(N)=O)C(=O)N[C@@H](CCCNC(=N)N)C(=O)N[C@@H](CCC(=O)O)C(=O)N[C@@H](CCCNC(=N)N)C(=O)N[C@@H](C)C(=O)N[C@@H](CCC(=O)O)C(=O)N[C@@H](CCC(N)=O)C(=O)N[C@@H](CC(N)=O)C(=O)N[C@@H](CCCNC(=N)N)C(=O)N[C@H](C(=O)N[C@H](C(=O)N[C@@H](Cc1ccccc1)C(=O)N[C@@H](CC(=O)O)C(=O)N[C@@H](CO)C(=O)N[C@H](C(N)=O)C(C)C)[C@@H](C)CC)[C@@H](C)CC)[C@@H](C)O)[C@@H](C)O)[C@@H](C)O [rUcn1],Ki,mCRFR2β [1]; read-out: Inhibitory binding constant (Ki),0.0115 µM
"[^125I-Tyr^0,Glu^1,Nle^17]-sauvagine [labeled sauvagine]",Binding of labeled sauvagine,hCRFR1α [7],fail to bind labeled sauvagine
same,Binding of labeled sauvagine,hCRFR1α [7]; [12],do not bind the labeled agonist sauvagine
same,Binding of labeled sauvagine,mCRFR2β [8],fail to bind labeled sauvagine
same,Binding of labeled sauvagine,mCRFR2β [8]; [12],do not bind the labeled agonist sauvagine
sauvagine,Displacement of bound labeled astressin,hCRFR1α [9],does not displace labeled astressin bound to either receptor
same,Displacement of bound labeled astressin,mCRFR2β [1],does not displace labeled astressin bound to either receptor
same,Binding to ECD-1s,ECD-1s of the CRFRs,does not bind to the isolated ECD-1s
